Data set [1] deals with Ae. aegypti strain (Hanoi1). Put plainly: Transient expression of long dsmRNA Tra-2 RNAi construct (AaKLC2.1-long-02) injected into embryos; female lethality induced by different Dox concentrations. It counts as in vivo, Aedes aegypti. The conditions noted are these: for Hatched rate (hatched/injected embryos): 500 embryos injected with AaKLC2.1-long-02. From the text: In this example, we show the transient expression of a Tra-2 RNAi construct which created long dsmRNAs. The detail method to create this construct was described in Example 4. The promoter driving rtTA protein was AaKLC2.1. In the presence of doxycycline (Dox), Tet-On Advanced binds to the tetracycline response element in pTre-tight, and produces high-level tran-scription of the downstream gene. Ae. aegypti strain (Hanoi1) was fed on blood containing three different Dox concentrations to produce eggs containing different Dox doses (mg/litre). The construct named AaKLC2.1-long-02 after Maxiprep purification was diluted in 1^x injection buffer at 1.6 μg/μl. Embryos were desiccated briefly in 50 sec and stuck into a plastic cover slip via a piece of double sticky tape. The Voltalef oil was used to cover the embryos. After injection, the cover slip was then immediately transferred into a cover slip staining rack which was kept in a sealed plastic box with 100% humidity at 27° C. for 3-4 days and then hatched in Dox deoxygenated water. 500 embryos were injected in each Dox concentration. Larvae were reared under standard conditions. Three different Dox concentrations which were equivalent to the concentrations in blood meals were added to the rearing water. The sex ratio among survivors of each Dox concentration were shown in the below table.

Data set [2] concerns wMel Wolbachia in Ae. albopictus strains (Hanoi 1 and Laos2). As to the kind of experiment: Dox challenge of Wolbachia trans-infected lines, PCR re-test for presence of Wolbachia (wsp primers 81F/691R). It counts as in vivo, Aedes albopictus. The conditions noted are these: for Pupae (number from 50 3rd-4th larvae on Dox) / 3 day old adult (on Dox), number: Dox 30 mg/L; for 3 day old adult (on Dox), number: 4-5 days from third larvae to 3 day old adults; for 81F/691R PCR test, number with Wolbachia / 81F/691R PCR test, share with Wolbachia: after Dox 30 mg/L challenge. The protocol: Ae. albopictus strains (Hanoi 1 and Laos2) were trans-infected with Wolbachia from a Drosophila line (Oregon-R). This fly carries wMel Wolbachia. Drosophila embryos were collected as mentioned above. 1-2 day old virgin females were anaesthetized and microinjected directly in the thorax. […] These lines were maintained at a standard condition and challenged with the presence of Dox (30 mg/L) in 4-5 days from the third larvae to 3 day old adults. They were PCR re-tested for the presence of Wolbachia after the challenge using universal wsp primers 81F and 691R^38.

Another data set relates to Tra-2. Put plainly: Q-PCR of Tra-2 knockdown level in Tra-2 RNAi/Tet-on transgenic males induced by Dox. The class given is in vivo, Aedes aegypti. How it is done:
(§1) The Ae. aegypti strain named Hanoi1 was transformed with a Tra-2 RNAi (long dsmRNA) construct. This construct was assembled with rtTA(pTet-on advanced) and pTre-tight regulatory system as mentioned in Example 1. The strain was challenged with Dox three different concentrations (0.3 mg/L; 3 mg/L and 30 mg/L) between the third larvae stage and 3 day old adult. The males from each Dox concentration challenge were divided into two groups; one group was Q-PCR to reveal the knockdown level of Tra-2. The other group was outcrossed with wild type females. Total RNA from Hanoi 1 wild type males and Tra-2 RNAi/Hanoi 1 transgenic males were isolated in pools of 5 males in 3 biological replicates. The primers used for Actin5C (endogenous reference gene) were F: (5′-[…]-3′) (SEQ ID NO: 53) and R: (5′-[…]-3′) (SEQ ID NO: 54) which produced a 125 bp fragment. Primers used for amplifying Tra-2, which produced a 125 bp fragment nearby the Tra-2 RNAi target site, were: Forward: (5′ […] 3′) (SEQ ID NO: 55) and Reverse: (5′ […] 3′) (SEQ ID NO: 56). Three biological replicates were carried out in each Dox condition. The knockdown of expression levels were calculated by the relative standard curve method (Applied Biosystems), in which Act5C as an endogenous reference and wild type Hanoi 1 as an exogenous calibrator. PCR cycle was 95° C. for 15 mins; 45 cycles of 10 sec at 95° C., 10 sec at XC, 20 sec at 72° C., plate reading. X is annealing temperature, of which 59° C. for the reference gene Actin5C and 55° C. was used for Tra-2 primers. […] 0.3 mg/L caused a slight difference in comparison with wild type (96.98% wild type). […] See details in FIG. 2.

Data set [3] concerns Ae. aegypti strain Hanoi1 transformed with Tra-2 RNAi (long dsmRNA) construct. As to the kind of experiment: Outcross of Dox-induced homozygous Tra-2 RNAi transgenic males with wild type virgin females, sex ratio of the crosses. The class given is in vivo, Aedes aegypti. How it is done:
as §1
10 homozygous males (3 day old) from each concentration were crossed with 10 wild type virgin females.

The structures appear in SMILES notation.

Consider `C[C@H]1c2cccc(O)c2C(=O)C2=C(O)[C@]3(O)C(=O)C(C(N)=O)=C(O)[C@@H](N(C)C)[C@@H]3[C@@H](O)[C@@H]21` [Dox, Doxycycline], for which the Hatched rate entry was “(24.4) %” in data set [1] (0.3 mg of Dox/L), “(18.6) %” in data set [1] (3 mg of Dox/L) and “(14.8) %” in data set [1] (30 mg of Dox/L). For the same compound, the “Hatched rate (hatched/injected embryos)” value in data set [1] (0.3 mg of Dox/L) is listed as 122/500; in data set [1] (3 mg of Dox/L), 93/500; in data set [1] (30 mg of Dox/L), 74/500. Moreover, the “Pupae (number from 50 3rd-4th larvae on Dox)” value in data set [2] (wMel/Ae.albopictus Hanoi 1) and in data set [2] (wMel/Ae.albopictus Laos2) was 50 throughout. Moreover, the “3 day old adult (on Dox), number” value is listed as 49 in data set [2] (wMel/Ae.albopictus Hanoi 1) and 50 in data set [2] (wMel/Ae.albopictus Laos2). In addition, the entries for the “81F/691R PCR test, number with Wolbachia” value in data set [2] (wMel/Ae.albopictus Hanoi 1) and in data set [2] (wMel/Ae.albopictus Laos2) were 49 and 50, respectively. Besides, the “81F/691R PCR test, share with Wolbachia” value in data set [2] (wMel/Ae.albopictus Hanoi 1) and in data set [2] (wMel/Ae.albopictus Laos2) was 100% each time. The “Expression level of Tra-2 in males” value in the data set with Tra-2 (Dox 0.3 mg/L, third larvae stage to 3 day old adult) worked out at 96.98 % wild type; in the data set on Tra-2 (Dox 3 mg/L, third larvae stage to 3 day old adult), 73.7 % wild type; with Tra-2 (Dox 30 mg/L, after 5 days treatment) it was 33.26 % wild type. Besides, the “Hatch rate (value in brackets)” value in data set [3] (males induced at 0.3 mg/L Dox) came to 95.40; in data set [3] (males induced at 3 mg/L Dox), 90.60; in data set [3] (males induced at 30 mg/L Dox) it was 91.60. The “Male ratio (value in brackets)” value came out at 51.53 in data set [3] (males induced at 0.3 mg/L Dox), 64.88 in data set [3] (males induced at 3 mg/L Dox) and 93.47 in data set [3] (males induced at 30 mg/L Dox).

The values are drawn from patent US11344009B2, “All sterile males of culicine mosquitoes: a method of creation” (priority 2014, dated 2022).
